Measurements: ChEMBL document CHEMBL1201862, “PubChem BioAssay data set” (2004)
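Each compound was tested at five concentrations against cells in 96-well plates for 48 hours. GI50 = concentration required for 50% inhibition of growth.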 Activity calls are given as the source filed them. Cut-off read from the data, not from the text of the source: active = GI50 up to about 1.1 µM and inactive = higher.

Tests used:
Assay in all cases: inhibition of tumour cell growth, NCI panel, 48 h
SF-295 = tested on: SF-295
M19-MEL = tested on: M19-MEL
U-251 = tested on: U-251
UACC-257 = tested on: UACC-257
SN12C = tested on: SN12C
ACHN = tested on: ACHN
SW-620 = tested on: SW-620
SNB-19 = tested on: SNB-19
NCI-H522 = tested on: NCI-H522
M14 = tested on: M14
DMS-114 = tested on: DMS-114
COLO 205 = tested on: COLO 205
NCI-H460 = tested on: NCI-H460
EKVX = tested on: EKVX
OVCAR-8 = tested on: OVCAR-8
SF-268 = tested on: SF-268
NCI-H226 = tested on: NCI-H226
TK-10 = tested on: TK-10
SK-MEL-2 = tested on: SK-MEL-2
OVCAR-4 = tested on: OVCAR-4
K562 = tested on: K562
HCC 2998 = tested on: HCC 2998
CCRF-CEM = tested on: CCRF-CEM
SF-539 = tested on: SF-539
LOX IMVI = tested on: LOX IMVI
786-0 = tested on: 786-0
KM-20L2 = tested on: KM-20L2
HOP-92 = tested on: HOP-92
Malme-3M = tested on: Malme-3M
KM12 = tested on: KM12
LXFL 529 = tested on: LXFL 529
A549 = tested on: A549
UO-31 = tested on: UO-31
OVCAR-5 = tested on: OVCAR-5
SNB-78 = tested on: SNB-78
RXF 393 = tested on: RXF 393
HCT-116 = tested on: HCT-116
HT-29 = tested on: HT-29
HOP-18 = tested on: HOP-18
A498 = tested on: A498
RXF 631 = tested on: RXF 631
SK-MEL-28 = tested on: SK-MEL-28
XF498 = tested on: XF498
OVCAR-3 = tested on: OVCAR-3
HCT-15 = tested on: HCT-15
MOLT-4 = tested on: MOLT-4
NCI-H23 = tested on: NCI-H23
HOP-62 = tested on: HOP-62
CAKI-1 = tested on: CAKI-1
SNB-75 = tested on: SNB-75
RPMI-8226 = tested on: RPMI-8226
HL-60 = tested on: HL-60
UACC-62 = tested on: UACC-62
DMS-273 = tested on: DMS-273
SK-OV-3 = tested on: SK-OV-3
SK-MEL-5 = tested on: SK-MEL-5
DLD-1 = tested on: DLD-1
IGROV-1 = tested on: IGROV-1

SMILES: CCCCN(CCCC)CCCCNc1c(C)cnc2cc(Cl)ccc12
- GI50 (SF-295): 19.1 µM (inactive)
- GI50 (M19-MEL): 32.5 µM (inactive)
- GI50 (U-251): 28.6 µM (inactive)
- GI50 (UACC-257): 14.6 µM (inactive)
- GI50 (SN12C): 30.6 µM (inactive)
- GI50 (ACHN): 24.3 µM (inactive)
- GI50 (SW-620): 20.9 µM (inactive)
- GI50 (SNB-19): 52.5 µM (inactive)
- GI50 (NCI-H522): 15.2 µM (inactive)
- GI50 (M14): 1.94 µM (inactive)
- GI50 (DMS-114): 15.9 µM (inactive)
- GI50 (COLO 205): 23.3 µM (inactive)
- GI50 (NCI-H460): 30.9 µM (inactive)
- GI50 (EKVX): 20 µM (inactive)
- GI50 (OVCAR-8): 49.4 µM (inactive)
- GI50 (SF-268): 21.6 µM (inactive)
- GI50 (NCI-H226): 16.4 µM (inactive)
- GI50 (TK-10): 34.4 µM (inactive)
- GI50 (SK-MEL-2): 21.2 µM (inactive)
- GI50 (OVCAR-4): 49.2 µM (inactive)
- GI50 (K562): 10.3 µM (inactive)
- GI50 (HCC 2998): 14.5 µM (inactive)
- GI50 (CCRF-CEM): 49.1 µM (inactive)
- GI50 (SF-539): 13.4 µM (inactive)
- GI50 (LOX IMVI): 14.2 µM (inactive)
- GI50 (786-0): 14 µM (inactive)
- GI50 (KM-20L2): 11.3 µM (inactive)
- GI50 (HOP-92): 13.5 µM (inactive)
- GI50 (Malme-3M): 21 µM (inactive)
- GI50 (KM12): 36.6 µM (inactive)
- GI50 (LXFL 529): 31 µM (inactive)
- GI50 (A549): 30.9 µM (inactive)
- GI50 (UO-31): 9.35 µM (inactive)
- GI50 (OVCAR-5): 2.79 µM (inactive)
- GI50 (SNB-78): 55.3 µM (inactive)
- GI50 (RXF 393): 13.3 µM (inactive)
- GI50 (HCT-116): 11.1 µM (inactive)
- GI50 (HT-29): 14.9 µM (inactive)
- GI50 (HOP-18): 23 µM (inactive)
- GI50 (A498): 23.6 µM (inactive)
- GI50 (RXF 631): 13.7 µM (inactive)
- GI50 (SK-MEL-28): 17.2 µM (inactive)
- GI50 (XF498): 14.4 µM (inactive)
- GI50 (OVCAR-3): 30.2 µM (inactive)
- GI50 (HCT-15): 29.9 µM
- GI50 (MOLT-4): 25.9 µM (inactive)
- GI50 (NCI-H23): 38.7 µM (inactive)
- GI50 (HOP-62): 21.3 µM (inactive)

SMILES: COC(=O)C1=C(C(=O)OC)C(C(=O)OC)C(C(=O)OC)=C1C(=O)OC
- GI50 (SF-295): > 100 µM (inactive)
- GI50 (U-251): > 100 µM (inactive)
- GI50 (UACC-257): > 100 µM (inactive)
- GI50 (SN12C): > 100 µM (inactive)
- GI50 (ACHN): > 100 µM (inactive)
- GI50 (SW-620): > 100 µM (inactive)
- GI50 (CAKI-1): > 100 µM (inactive)
- GI50 (SNB-19): > 100 µM (inactive)
- GI50 (NCI-H522): > 100 µM (inactive)
- GI50 (M14): > 100 µM (inactive)
- GI50 (DMS-114): > 100 µM (inactive)
- GI50 (COLO 205): > 100 µM (inactive)
- GI50 (NCI-H460): > 100 µM (inactive)
- GI50 (SNB-75): > 100 µM (inactive)
- GI50 (EKVX): > 100 µM (inactive)
- GI50 (OVCAR-8): > 100 µM (inactive)
- GI50 (SF-268): > 100 µM (inactive)
- GI50 (TK-10): > 100 µM (inactive)
- GI50 (SK-MEL-2): > 100 µM (inactive)
- GI50 (OVCAR-4): > 100 µM (inactive)
- GI50 (K562): > 100 µM (inactive)
- GI50 (HCC 2998): > 100 µM (inactive)
- GI50 (CCRF-CEM): > 100 µM (inactive)
- GI50 (SF-539): > 100 µM (inactive)
- GI50 (LOX IMVI): > 100 µM (inactive)
- GI50 (786-0): > 100 µM (inactive)
- GI50 (KM-20L2): > 100 µM (inactive)
- GI50 (HOP-92): > 100 µM (inactive)
- GI50 (Malme-3M): > 100 µM (inactive)
- GI50 (KM12): > 100 µM (inactive)
- GI50 (LXFL 529): > 100 µM (inactive)
- GI50 (A549): > 100 µM (inactive)
- GI50 (UO-31): > 100 µM (inactive)
- GI50 (OVCAR-5): > 100 µM (inactive)
- GI50 (RXF 393): > 100 µM (inactive)
- GI50 (RPMI-8226): > 100 µM (inactive)
- GI50 (HL-60): > 100 µM (inactive)
- GI50 (HT-29): > 100 µM (inactive)
- GI50 (HOP-18): > 100 µM (inactive)
- GI50 (UACC-62): > 100 µM (inactive)
- GI50 (DMS-273): > 100 µM (inactive)
- GI50 (SK-OV-3): > 100 µM (inactive)
- GI50 (SK-MEL-5): > 100 µM (inactive)
- GI50 (RXF 631): > 100 µM (inactive)
- GI50 (SK-MEL-28): > 100 µM (inactive)
- GI50 (DLD-1): > 100 µM (inactive)
- GI50 (OVCAR-3): > 100 µM (inactive)
- GI50 (HCT-15): > 100 µM
- GI50 (MOLT-4): > 100 µM (inactive)
- GI50 (IGROV-1): > 100 µM (inactive)
- GI50 (NCI-H23): > 100 µM (inactive)
- GI50 (HOP-62): > 100 µM (inactive)

SMILES: Nc1nc(OCc2ccccc2)c2nc[nH]c2n1 [6-O-BENZYLGUANINE]
- GI50 (SF-295): 121 µM (inactive)
- GI50 (M19-MEL): 198 µM (inactive)
- GI50 (U-251): 87.7 µM (inactive)
- GI50 (UACC-257): 91 µM (inactive)
- GI50 (SN12C): 90.4 µM (inactive)
- GI50 (ACHN): 47.4 µM (inactive)
- GI50 (SW-620): 169 µM (inactive)
- GI50 (CAKI-1): 23.1 µM (inactive)
- GI50 (SNB-19): 129 µM (inactive)
- GI50 (NCI-H522): 49.4 µM (inactive)
- GI50 (M14): 75.9 µM (inactive)
- GI50 (DMS-114): 64 µM (inactive)
- GI50 (COLO 205): 124 µM (inactive)
- GI50 (NCI-H460): 67.6 µM (inactive)
- GI50 (SNB-75): 24.8 µM (inactive)
- GI50 (EKVX): 99.5 µM (inactive)
- GI50 (OVCAR-8): 112 µM (inactive)
- GI50 (SF-268): 70 µM (inactive)
- GI50 (NCI-H226): 47.5 µM (inactive)
- GI50 (TK-10): 47.1 µM (inactive)
- GI50 (SK-MEL-2): 68.9 µM (inactive)
- GI50 (OVCAR-4): 69.8 µM (inactive)
- GI50 (K562): 86.5 µM (inactive)
- GI50 (HCC 2998): 148 µM (inactive)
- GI50 (CCRF-CEM): 66.8 µM (inactive)
- GI50 (SF-539): 91.4 µM (inactive)
- GI50 (LOX IMVI): 64.6 µM (inactive)
- GI50 (786-0): 80.7 µM (inactive)
- GI50 (KM-20L2): 85.7 µM (inactive)
- GI50 (HOP-92): 64.4 µM (inactive)
- GI50 (Malme-3M): 87.9 µM (inactive)
- GI50 (KM12): 98.6 µM (inactive)
- GI50 (LXFL 529): 93.3 µM (inactive)
- GI50 (A549): 73.8 µM (inactive)
- GI50 (UO-31): 25.9 µM (inactive)
- GI50 (OVCAR-5): 80 µM (inactive)
- GI50 (SNB-78): 79.8 µM (inactive)
- GI50 (RXF 393): 32.5 µM (inactive)
- GI50 (HCT-116): 59.6 µM (inactive)
- GI50 (HL-60): 45.7 µM (inactive)
- GI50 (HT-29): 87.3 µM (inactive)
- GI50 (HOP-18): 87.3 µM (inactive)
- GI50 (UACC-62): 44.2 µM (inactive)
- GI50 (A498): 57.8 µM (inactive)
- GI50 (DMS-273): 93.1 µM (inactive)
- GI50 (SK-OV-3): 75.7 µM (inactive)
- GI50 (SK-MEL-5): 81.1 µM (inactive)
- GI50 (RXF 631): 69.7 µM (inactive)
- GI50 (SK-MEL-28): 140 µM (inactive)
- GI50 (DLD-1): 64.6 µM (inactive)
- GI50 (OVCAR-3): 90.2 µM (inactive)
- GI50 (HCT-15): 57.1 µM
- GI50 (MOLT-4): 67.6 µM (inactive)
- GI50 (IGROV-1): 64.6 µM (inactive)
- GI50 (NCI-H23): 97.1 µM (inactive)
- GI50 (HOP-62): 51.6 µM (inactive)
